The source of these data is ChEMBL document CHEMBL5465560, “Selectivity Literature for EUbOPEN Chemogenomic Library” (2024).

What all share (details): at 10 µM
Assay [1] concerns the target T1, Serine/threonine-protein kinase D2 (Homo sapiens) (UniProt Q9BZL6).
T1 sequence (whole entry): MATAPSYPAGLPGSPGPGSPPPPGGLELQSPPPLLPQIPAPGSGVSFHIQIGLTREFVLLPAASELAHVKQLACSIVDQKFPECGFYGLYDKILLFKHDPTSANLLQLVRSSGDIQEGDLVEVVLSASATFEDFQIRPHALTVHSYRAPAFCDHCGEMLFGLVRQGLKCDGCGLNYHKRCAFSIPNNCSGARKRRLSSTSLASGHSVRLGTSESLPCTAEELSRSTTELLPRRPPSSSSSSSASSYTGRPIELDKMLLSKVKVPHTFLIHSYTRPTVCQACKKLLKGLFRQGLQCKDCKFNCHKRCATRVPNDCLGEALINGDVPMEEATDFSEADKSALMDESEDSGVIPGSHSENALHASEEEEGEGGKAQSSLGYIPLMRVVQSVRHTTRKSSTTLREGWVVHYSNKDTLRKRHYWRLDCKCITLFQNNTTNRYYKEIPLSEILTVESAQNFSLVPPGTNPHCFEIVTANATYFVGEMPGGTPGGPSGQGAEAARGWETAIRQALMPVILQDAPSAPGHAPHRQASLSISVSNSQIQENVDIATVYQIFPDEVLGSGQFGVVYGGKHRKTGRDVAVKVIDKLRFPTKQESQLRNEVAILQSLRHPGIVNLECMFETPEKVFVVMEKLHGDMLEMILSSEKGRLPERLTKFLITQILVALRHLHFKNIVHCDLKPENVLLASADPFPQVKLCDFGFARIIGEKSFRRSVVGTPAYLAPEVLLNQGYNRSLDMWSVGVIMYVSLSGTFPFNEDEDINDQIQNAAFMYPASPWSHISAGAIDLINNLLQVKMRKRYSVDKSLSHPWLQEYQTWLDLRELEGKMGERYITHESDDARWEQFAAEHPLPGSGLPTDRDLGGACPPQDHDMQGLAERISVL
The experiment in a line: Selectivity interaction (KinomeScan (DiscoverX)) EUB0000092b PRKD2.

Assay [2] relates to Receptor-type tyrosine-protein kinase FLT3 (Homo sapiens), P36888 [UNDEFINED MUTATION]. Briefly: (§1) Selectivity interaction (KinomeScan (DiscoverX)) EUB0000618a FLT3.
The test system of assay [3] is T2, Receptor-type tyrosine-protein kinase FLT3 (Homo sapiens), P36888 [D835Y].
T2 sequence (whole entry): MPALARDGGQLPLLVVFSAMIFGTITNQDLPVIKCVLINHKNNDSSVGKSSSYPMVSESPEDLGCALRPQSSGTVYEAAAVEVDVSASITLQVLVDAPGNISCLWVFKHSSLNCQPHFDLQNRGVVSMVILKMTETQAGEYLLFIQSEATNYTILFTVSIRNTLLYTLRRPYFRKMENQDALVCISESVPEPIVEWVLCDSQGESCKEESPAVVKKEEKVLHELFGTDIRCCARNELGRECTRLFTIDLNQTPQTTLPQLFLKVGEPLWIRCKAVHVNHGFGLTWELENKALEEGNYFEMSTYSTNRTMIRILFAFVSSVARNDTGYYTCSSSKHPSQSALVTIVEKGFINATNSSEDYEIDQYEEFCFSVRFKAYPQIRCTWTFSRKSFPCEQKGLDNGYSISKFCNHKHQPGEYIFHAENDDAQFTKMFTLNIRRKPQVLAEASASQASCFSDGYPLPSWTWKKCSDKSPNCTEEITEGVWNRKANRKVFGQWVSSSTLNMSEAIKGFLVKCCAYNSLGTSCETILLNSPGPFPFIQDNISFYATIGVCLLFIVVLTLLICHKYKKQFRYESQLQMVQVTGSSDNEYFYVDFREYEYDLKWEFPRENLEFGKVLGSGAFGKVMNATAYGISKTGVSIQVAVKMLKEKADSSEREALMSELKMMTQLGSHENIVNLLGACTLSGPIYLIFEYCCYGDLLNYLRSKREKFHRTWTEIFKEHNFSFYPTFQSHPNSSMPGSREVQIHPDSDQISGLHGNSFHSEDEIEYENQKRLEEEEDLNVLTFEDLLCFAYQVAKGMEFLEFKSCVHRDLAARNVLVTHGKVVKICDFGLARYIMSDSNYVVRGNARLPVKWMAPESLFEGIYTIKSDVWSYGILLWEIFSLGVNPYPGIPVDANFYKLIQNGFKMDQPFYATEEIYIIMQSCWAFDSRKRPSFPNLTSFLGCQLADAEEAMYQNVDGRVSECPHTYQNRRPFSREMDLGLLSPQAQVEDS
The description is as §1.

Assay [4] concerns T3, Receptor-type tyrosine-protein kinase FLT3 (Homo sapiens), P36888 [R834Q].
T3 sequence (whole entry): T2 sequence (whole entry) with R834Q, Y835D
The assay is described as §1.

Structures are written as SMILES. Residue numbers refer to the chain shown, from its start.

On to `CCC(=O)N1CCN(c2ccc(-n3c(=O)ccc4cnc5ccc(-c6cnc7ccccc7c6)cc5c43)cc2C(F)(F)F)CC1`, for which the % of control in assay [1] worked out at 100%.
Turning to `O[C@H]1CC[C@H](Nc2ncc3nc(Nc4c(F)cc(F)cc4F)n([C@H]4CCOC4)c3n2)CC1`, the % of control in assay [2] amounted to 90%; in assay [3] it was 100%; in assay [4], 91%.
